According to ChEMBL document CHEMBL1201862, “PubChem BioAssay data set” (2004):
Several values for one entry are separate records, joined by “and”; a condition that tells them apart may be missing. Equal entries are not always repeated. Activity calls are given as the source filed them.

Tests used:
BJ [1] = assay: cytotoxicity toward BJ-TERT fibroblasts, dose response, cell-based, RAS-independent, luminescence (AID 1933); assay type: functional, Homo sapiens; conditions: bj
BJ [2] = assay: cells; assay type: functional, cell-based, Homo sapiens; conditions: bj
BJ [3] = assay: cytotoxicity toward BJ-TERT-LT-ST fibroblasts, dose response, cell-based, RAS-independent, luminescence (AID 1935); assay type: functional, Homo sapiens; conditions: bj;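 note: BJ fibroblasts immortalized with TERT plus LT and ST oncogenes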
X-box-binding protein 1 = X-box-binding protein 1 (Homo sapiens, UniProt P17861); assay type: functional, Cricetulus griseus;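 note: confirmatory dose-response counter-screen serving a CHOP assay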
Sequence of X-box-binding protein 1 (P17861 whole entry): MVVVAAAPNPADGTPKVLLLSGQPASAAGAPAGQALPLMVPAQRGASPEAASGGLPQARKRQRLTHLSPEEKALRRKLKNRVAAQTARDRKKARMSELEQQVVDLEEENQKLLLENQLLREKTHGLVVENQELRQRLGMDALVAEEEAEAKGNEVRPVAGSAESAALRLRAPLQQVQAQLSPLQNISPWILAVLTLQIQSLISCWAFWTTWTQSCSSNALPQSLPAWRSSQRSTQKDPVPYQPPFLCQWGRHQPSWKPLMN

[4] = biological target: Photoreceptor-specific nuclear receptor (Homo sapiens, UniProt Q9Y5X4); assay type: functional;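 note: potency for compounds that break the NR2E3 corepressor complex and count as activators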
[5] = biological target: Peroxisome proliferator-activated receptor gamma/Nuclear receptor coactivator 1 (Homo sapiens, UniProt P37231); assay: (§1) TR-FRET dose response biochemical High Throughput Screening assay for agonists of the steroid receptor coactivator 1 (SRC-1) recruitment by the peroxisome proliferator-activated receptor gamma (PPAR gamma): non-selective agonists. [Related pubchem assays (depositor defined):AID1300, AID1808, AID504735, AID631]; assay type: protein assay
Sequence of Peroxisome proliferator-activated receptor gamma/Nuclear receptor coactivator 1 (P37231 whole entry): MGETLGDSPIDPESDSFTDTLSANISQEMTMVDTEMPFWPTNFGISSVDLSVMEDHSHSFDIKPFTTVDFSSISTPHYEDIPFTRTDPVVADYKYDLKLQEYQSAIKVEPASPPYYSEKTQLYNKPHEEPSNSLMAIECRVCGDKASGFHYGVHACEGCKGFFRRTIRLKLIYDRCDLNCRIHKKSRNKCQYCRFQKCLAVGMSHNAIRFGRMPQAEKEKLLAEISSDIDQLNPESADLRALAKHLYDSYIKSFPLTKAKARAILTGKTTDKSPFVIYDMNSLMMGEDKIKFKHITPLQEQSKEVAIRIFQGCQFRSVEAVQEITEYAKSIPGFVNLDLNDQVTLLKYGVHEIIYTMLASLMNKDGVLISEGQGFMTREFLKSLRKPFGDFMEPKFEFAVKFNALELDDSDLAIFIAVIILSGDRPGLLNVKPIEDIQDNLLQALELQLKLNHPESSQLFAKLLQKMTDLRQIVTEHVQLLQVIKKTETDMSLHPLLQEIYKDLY
Sequence of Peroxisome proliferator-activated receptor gamma/Nuclear receptor coactivator 1 (Q15788 whole entry, further chain): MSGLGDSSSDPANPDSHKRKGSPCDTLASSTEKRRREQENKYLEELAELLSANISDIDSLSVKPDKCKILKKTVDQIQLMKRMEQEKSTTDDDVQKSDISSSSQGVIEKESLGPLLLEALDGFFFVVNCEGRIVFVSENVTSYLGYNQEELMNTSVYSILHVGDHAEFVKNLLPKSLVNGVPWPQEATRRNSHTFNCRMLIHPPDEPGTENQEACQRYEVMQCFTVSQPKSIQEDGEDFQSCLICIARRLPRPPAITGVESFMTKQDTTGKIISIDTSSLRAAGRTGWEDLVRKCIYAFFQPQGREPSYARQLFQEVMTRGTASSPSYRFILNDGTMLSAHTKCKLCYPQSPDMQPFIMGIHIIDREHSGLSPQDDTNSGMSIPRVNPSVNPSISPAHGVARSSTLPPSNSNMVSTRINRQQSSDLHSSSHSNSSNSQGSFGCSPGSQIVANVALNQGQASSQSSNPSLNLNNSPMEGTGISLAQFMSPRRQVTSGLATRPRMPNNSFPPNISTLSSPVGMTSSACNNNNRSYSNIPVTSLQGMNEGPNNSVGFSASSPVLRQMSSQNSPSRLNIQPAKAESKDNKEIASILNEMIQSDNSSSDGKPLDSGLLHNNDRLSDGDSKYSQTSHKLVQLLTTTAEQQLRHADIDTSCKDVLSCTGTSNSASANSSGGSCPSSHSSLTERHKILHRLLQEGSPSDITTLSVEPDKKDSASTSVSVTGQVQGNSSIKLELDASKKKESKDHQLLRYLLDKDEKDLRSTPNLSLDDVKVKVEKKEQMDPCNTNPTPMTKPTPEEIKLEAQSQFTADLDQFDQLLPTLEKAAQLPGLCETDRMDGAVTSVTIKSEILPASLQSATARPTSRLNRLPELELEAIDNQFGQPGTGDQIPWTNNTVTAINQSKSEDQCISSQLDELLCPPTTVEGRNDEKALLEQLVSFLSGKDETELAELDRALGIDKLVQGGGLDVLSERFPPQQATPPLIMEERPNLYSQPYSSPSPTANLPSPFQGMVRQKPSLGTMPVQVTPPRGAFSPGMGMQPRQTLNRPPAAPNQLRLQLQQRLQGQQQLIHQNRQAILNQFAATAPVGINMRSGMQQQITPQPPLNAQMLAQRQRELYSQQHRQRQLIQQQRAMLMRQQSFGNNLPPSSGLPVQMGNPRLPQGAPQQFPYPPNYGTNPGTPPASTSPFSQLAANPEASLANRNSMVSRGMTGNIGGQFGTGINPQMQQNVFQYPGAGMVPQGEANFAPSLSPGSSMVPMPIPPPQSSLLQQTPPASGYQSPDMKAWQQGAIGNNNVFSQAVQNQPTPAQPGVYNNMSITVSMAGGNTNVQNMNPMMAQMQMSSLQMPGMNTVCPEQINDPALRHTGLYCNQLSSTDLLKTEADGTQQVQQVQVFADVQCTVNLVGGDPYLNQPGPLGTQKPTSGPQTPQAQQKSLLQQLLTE

[6] = biological target: Peroxisome proliferator-activated receptor gamma/Nuclear receptor coactivator 3 (Homo sapiens, UniProt P37231); assay: as §1, with “3 (SRC-3)” for “1 (SRC-1)”, “assays: 1301 (Confirmation screen.), 1048 (Primary screen.)]” for “assays (depositor defined):AID1300, AID1808, AID504735, AID631]”; assay type: functional
[7] = biological target: Peroxisome proliferator-activated receptor gamma/Nuclear receptor coactivator 2 (Homo sapiens, UniProt P37231); assay: TR-FRET dose response biochemical High Throughput Screening assay for agonists of the steroid receptor coactivator 2 (SRC-2) recruitment by the peroxisome proliferator-activated receptor gamma (PPAR gamma): non-selective agonists. [Related pubchem assays: 1297, 1032 ]; assay type: functional
Sequence of Peroxisome proliferator-activated receptor gamma/Nuclear receptor coactivator 2 (P37231 whole entry): as the sequence (P37231 whole entry) above
Sequence of Peroxisome proliferator-activated receptor gamma/Nuclear receptor coactivator 2 (Q15596 whole entry, further chain): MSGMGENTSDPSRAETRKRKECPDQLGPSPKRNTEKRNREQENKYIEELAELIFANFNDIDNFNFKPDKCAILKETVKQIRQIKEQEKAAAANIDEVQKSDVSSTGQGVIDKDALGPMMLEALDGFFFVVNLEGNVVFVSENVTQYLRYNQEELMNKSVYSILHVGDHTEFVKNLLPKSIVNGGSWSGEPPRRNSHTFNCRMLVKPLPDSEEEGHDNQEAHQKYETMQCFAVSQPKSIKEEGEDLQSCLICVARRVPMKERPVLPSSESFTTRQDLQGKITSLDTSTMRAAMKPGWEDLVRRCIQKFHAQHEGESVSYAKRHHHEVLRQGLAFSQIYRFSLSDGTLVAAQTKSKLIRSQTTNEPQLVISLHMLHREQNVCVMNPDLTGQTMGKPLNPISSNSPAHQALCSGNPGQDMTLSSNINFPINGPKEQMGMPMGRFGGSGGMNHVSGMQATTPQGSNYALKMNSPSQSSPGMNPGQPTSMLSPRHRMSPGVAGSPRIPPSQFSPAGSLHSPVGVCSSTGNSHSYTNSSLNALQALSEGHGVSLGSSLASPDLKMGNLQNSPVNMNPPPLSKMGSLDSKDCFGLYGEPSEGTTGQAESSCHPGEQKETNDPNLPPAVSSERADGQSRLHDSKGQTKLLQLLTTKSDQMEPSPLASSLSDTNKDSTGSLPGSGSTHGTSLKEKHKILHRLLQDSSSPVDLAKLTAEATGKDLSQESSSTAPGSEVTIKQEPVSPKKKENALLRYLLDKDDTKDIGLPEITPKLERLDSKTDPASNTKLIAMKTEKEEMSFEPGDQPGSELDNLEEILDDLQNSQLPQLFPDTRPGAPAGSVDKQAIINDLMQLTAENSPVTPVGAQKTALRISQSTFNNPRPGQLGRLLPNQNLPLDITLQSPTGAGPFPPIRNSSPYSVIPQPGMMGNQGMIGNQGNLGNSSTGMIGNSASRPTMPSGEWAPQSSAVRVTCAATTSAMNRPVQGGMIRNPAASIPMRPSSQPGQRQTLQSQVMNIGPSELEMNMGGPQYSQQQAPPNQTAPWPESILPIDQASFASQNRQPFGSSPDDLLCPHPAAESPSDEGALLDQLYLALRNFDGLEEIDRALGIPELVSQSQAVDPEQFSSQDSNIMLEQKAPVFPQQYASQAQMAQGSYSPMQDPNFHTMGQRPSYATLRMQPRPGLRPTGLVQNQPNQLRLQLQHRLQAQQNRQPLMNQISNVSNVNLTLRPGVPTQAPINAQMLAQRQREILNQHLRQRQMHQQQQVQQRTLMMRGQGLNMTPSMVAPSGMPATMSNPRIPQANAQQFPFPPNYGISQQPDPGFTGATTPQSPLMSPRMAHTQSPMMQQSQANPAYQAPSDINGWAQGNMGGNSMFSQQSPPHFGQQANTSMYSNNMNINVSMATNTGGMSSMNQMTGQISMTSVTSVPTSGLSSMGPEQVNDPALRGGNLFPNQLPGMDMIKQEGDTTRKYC

[8] = biological target: Peroxisome proliferator-activated receptor gamma/Nuclear receptor corepressor 2 (Homo sapiens, UniProt P37231+Q9Y618); assay type: functional
Protein Tat = Protein Tat (Human immunodeficiency virus type 1 group M subtype B (isolate HXB2)(HIV-1), UniProt P04608); assay type: functional;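 note: tat binding to TAR RNA read out by fluorescence polarization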
[9] = Luminescence Cell-Based Dose Confirmation HTS to Identify Activators of 5'UTR Stem-Loop Driven Alpha-Synuclein mRNA Translation in H4 Neuroglioblastoma Cells. [Related pubchem assays: 1829 (Project Summary), 1814 (Primary HTS)]; assay type: functional
[10] = Luminescence Cell-Based Dose Response HTS to Identify Activators of Luciferase Translation or Activity in H4 […] Cells. [Related pubchem assays: 1829 (Project Summary), 1814 (Primary HTS)]; assay type: functional
H4 = assay: Luminescence Cell-Based Dose Response HTS to Identify Activators of 5'UTR Stem-Loop Driven Prion Protein mRNA Translation in H4 Neuroglioblastoma Cells. [Related pubchem assays: 1829 (Project Summary), 1814 (Primary HTS)]; assay type: functional; conditions: Homo sapiens
[11] = cytotoxicity in HPDE-C7 cells, cell-based, fluorescence, HTS (AID 430); assay type: functional; conditions: Homo sapiens
[12] = inhibitors of intracellular T. cruzi replication, confirmation, NIH3T3 host cells, beta-gal luminescence (AID 2044); assay type: functional, cell-based;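 note: intracellular parasites grown in NIH/3T3 mouse fibroblasts as host cells; luminescent beta-galactosidase reporter signal from transgenic T. cruzi replicating inside host cells; inhibitors lower the luminescence signal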
[13] = cytotoxicity in KRAS-transformed pancreatic duct cells, primary screen, cell-based, fluorescence, HTS (AID 431); assay type: functional; conditions: Homo sapiens;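 note: cell line used: HPDE-C7K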
[14] = cytotoxicity toward NIH3T3 fibroblasts, dose response, counter-screen, cell-based, ATP luminescence, mouse fibroblasts (AID 2010); assay type: functional;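 note: cells exposed to compound for about 90 hours before reading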
[15] = biological target: Fructose-bisphosphate aldolase (Mycobacterium tuberculosis, UniProt P9WQA3); assay: Fluorescence-based biochemical high throughput dose response assay for inhibitors of the fructose-bisphosphate aldolase (FBA) of M. tuberculosis.; assay type: functional
Sequence of Fructose-bisphosphate aldolase (P9WQA3 whole entry): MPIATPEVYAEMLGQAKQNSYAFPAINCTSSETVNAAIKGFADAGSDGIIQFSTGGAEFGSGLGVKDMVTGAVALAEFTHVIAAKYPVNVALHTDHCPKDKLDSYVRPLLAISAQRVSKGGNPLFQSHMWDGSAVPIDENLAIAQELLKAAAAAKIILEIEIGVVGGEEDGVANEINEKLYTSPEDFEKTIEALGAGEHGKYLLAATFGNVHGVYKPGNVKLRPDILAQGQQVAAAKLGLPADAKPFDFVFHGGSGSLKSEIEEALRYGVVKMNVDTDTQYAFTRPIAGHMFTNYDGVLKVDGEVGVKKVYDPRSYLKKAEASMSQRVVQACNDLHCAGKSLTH

Estrogen receptor beta [16] = biological target: T1, Estrogen receptor beta (Homo sapiens, UniProt Q92731);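 note: recombinant ER-beta bound to coactivator SRC1 peptide in presence of estradiol agonist; inhibitors block coactivator peptide binding and lower the FRET signal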
T1 sequence (Q92731 whole entry): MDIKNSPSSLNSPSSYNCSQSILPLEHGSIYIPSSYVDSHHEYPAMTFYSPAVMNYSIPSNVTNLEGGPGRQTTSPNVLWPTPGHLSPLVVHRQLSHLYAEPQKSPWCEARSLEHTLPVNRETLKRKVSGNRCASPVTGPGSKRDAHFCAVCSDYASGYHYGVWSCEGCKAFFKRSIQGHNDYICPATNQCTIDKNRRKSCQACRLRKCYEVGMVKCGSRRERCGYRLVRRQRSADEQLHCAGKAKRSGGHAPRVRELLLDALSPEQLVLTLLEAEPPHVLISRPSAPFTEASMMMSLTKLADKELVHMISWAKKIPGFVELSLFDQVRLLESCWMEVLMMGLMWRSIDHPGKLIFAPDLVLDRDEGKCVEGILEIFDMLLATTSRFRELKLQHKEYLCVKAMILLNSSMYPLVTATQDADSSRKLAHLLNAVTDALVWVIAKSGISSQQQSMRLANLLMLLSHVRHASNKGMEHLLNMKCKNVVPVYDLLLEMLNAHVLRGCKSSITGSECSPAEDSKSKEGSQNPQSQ

Estrogen receptor beta [17] = biological target: T1, Estrogen receptor beta; assay: ERβ–SRC-3 coactivator interaction inhibitors, confirmation, orthogonal assay, biochemical, ELISA, streptavidin-HRP readout (AID 1060)
[18] = biological target: Lysosomal acid glucosylceramidase (Homo sapiens, UniProt P04062); assay: Dose response cell-based high throughput screening assay to identify enhancers of beta-glucosidase activity. [Related pubchem assays: 784 ]; assay type: functional

## C=C(C=O)CC1CC(O)[C@]2(C)OC3CC4OC5C[C@]6(C)O[C@]7(C)CCC8OC9C[C@]%10(C)OC%11C(C)=CC(=O)OC%11CC%10OC9C[C@@H](C)C8OC7CC6O[C@]5(C)CC5OC5C4OC3CC2O1 (some centres not stated)
BJ [1]
  EC50: 1.17 µM (inconclusive)
BJ [2]
  EC50: 2.93 µM (inconclusive)
BJ [3]
  EC50: 0.735 µM (inconclusive)
X-box-binding protein 1
  Absolute IC50 (XBP1): 4.71 µM

## O=C(O)CCc1ccc(-c2ccc(Br)cc2)o1
[4]
  IC50: > 39.8 µM (not active)
[5]
  EC50: > 79.4 µM (inactive)
[6]
  EC50: > 79.4 µM (not active)
[7]
  EC50: 65.4 µM (not active)
[8]
  IC50: 4.4 µM (active)
Protein Tat
  IC50: > 100 µM (active)

## Nc1c(C(=O)NCc2ccco2)c2nc3ccccc3nc2n1CCN1CCCCC1
[9]
  EC50: > 120 µM (not active)
[10]
  EC50: 26.9 µM (active)
H4
  EC50: > 120 µM (not active)
[11]
  EC50: 12.6 µM (active)
[12]
  EC50: 2.43 µM (active)
[13]
  EC50: 14.4 µM (active)
[14]
  EC50: 9.81 µM (active)
[15]
  IC50: 0.776 µM (active)

## Cc1ccccc1Nc1nnc(SCC(=O)NCc2ccco2)s1
Estrogen receptor beta [16]
  IC50: 10.3 µM (active)
Estrogen receptor beta [17]
  IC50: 3.24 µM (not active) and > 50 µM (not active)

## CCOC(=O)c1c(NC(=O)Cc2cccs2)sc(C(=O)NC2CCCCC2)c1C
X-box-binding protein 1
  Absolute IC50 (XBP1): 10 µM

## CC(C)OC(=O)CSc1nnc(-c2cccnc2)n1N
[18]
  EC50: > 10 µM (not active)
